The target of one assay is T1, 5-HT7 receptor (Homo sapiens, UniProt P34969).
T1 construct: Tissues were homogenized in ice cold sucrose; from tissue; host or cells: unspecified tissue, membrane homogenate
The experiment in a line: Receptor binding assay, [3]H-5-CT. Particulars: for 5HT-7 receptor binding data using [3]H-5-CT: stepwise screen from 10 μM, active samples diluted and re-screened, radioligand 25 pM, dropout < 35; for IC50: [3]H-5-CT binding. How it is done: Receptor Binding Assay, ^[3]H-5-CT
The combinatorial library was screened using radiolabeled 5-carboxamidotryptamine, a selective 5-HT-7 agonist. Tissues were homogenized in ice cold sucrose (0.32 M, 25 ml) for 15 strokes at 500 rpm and centrifuged at 13000 rpm for 10 mins. The supernatant was re-centrifuged at 13000 rpm for 20 mins. The resulting pellet was re-dispersed to the required volume of buffer at 500 rpm and stored in aliquots at […].
Binding was achieved using radioligand 5-carboxamidotryptamine at 25 pM. The samples were incubated {with membranes (0.1 mg/ml)} in 20 mM Hepes, 1 mM EGTA, 5 mM MgCl2, 150 mM NaCl, at pH 6.5 for 2 hrs at RT and then centrifuged at 11000 rpm for 5 minutes. The membrane pellets were washed twice with water and the bound radioactivity was measured in a Packard Cobra Auto-gamma counter (B5005). All binding assays were carried out with SB-258719 as standard. Controls (no compound) were also added. All samples were made in duplicate and repeated twice. All compounds were initially screened for percentage inhibition at 10 μM. Samples showing an average inhibition of […] were diluted to 1 μM and re-screened and if active diluted again.

For assay [1], the system named is mice. The experiment in a line: Tail suspension test. Type of assay: in vivo. Particulars: interperitoneal 30 min prior, immobility over 5 minutes. On the procedure: Male mice weighting 20-25 g were used preferentially. The were housed in plastic cages for at least 10 days prior to testing in a 12 hours light cycle with food and water freely available.
Animals were transported from the housing room to the testing area in their own cages and were allowed to adapt to the new environment for 1 hour before testing. Groups of 6 animals were treated with the test compounds or the vehicle by interperitoneal injection 30 min prior to testing. For the test the mice were suspended on the edge of a shelf 58 cm above a table top by adhesive tape, placed approximately 1 cm from the tip of the tail. The duration of immobility was recorded for a period of 5 minutes. Mice were considered immobile when they hang passively and the time was recorded.

Assay [2] has as its system mice. The experiment in a line: Despair swim test (immobility time test). The conditions noted are these: immobility in 5 min test, drug one hour prior. It is filed as in vivo. The source says:
Despair Swim Test (Immobility Time Test)
This reflects a state of despair, which can be reduced by several agents, which are therapeutically effective in human depression. Antidepressant drugs have the effect of reducing the duration of immobility.
Mice were brought into the laboratory at least one day before the experiment and were housed in separate cages, with free access to food and water. The mice were individually forced to swim inside a vertical Plexiglas cylinder (height: 40 cm; diameter: 18 cm, containing 15 cm of water maintained at 30° C.). After 10 min in the water the mice were removed and allowed to dry in a heated enclosure (32° C.) before being returned to their home cages. They were again replaced in the cylinder 24 hrs later and the total duration of the immobility was measured during a 5 min test. Floating behaviour during this 5 min period was reproducible in different groups of mice. An animal was judged to be immobile whenever it remained floating passively in the water in a slightly hunched but upright position, its nose just above the surface. The test drug or the standard were administered one hour prior to testing.

The text below walks through data of patent US20070088052A1, “Sulfonamide derivatives as 5ht7 receptor antagonists” (Aston University, priority 2003, published 2007).

Marks after values point to notes of the source that are not given here.

T1 sequence (P34969 whole entry): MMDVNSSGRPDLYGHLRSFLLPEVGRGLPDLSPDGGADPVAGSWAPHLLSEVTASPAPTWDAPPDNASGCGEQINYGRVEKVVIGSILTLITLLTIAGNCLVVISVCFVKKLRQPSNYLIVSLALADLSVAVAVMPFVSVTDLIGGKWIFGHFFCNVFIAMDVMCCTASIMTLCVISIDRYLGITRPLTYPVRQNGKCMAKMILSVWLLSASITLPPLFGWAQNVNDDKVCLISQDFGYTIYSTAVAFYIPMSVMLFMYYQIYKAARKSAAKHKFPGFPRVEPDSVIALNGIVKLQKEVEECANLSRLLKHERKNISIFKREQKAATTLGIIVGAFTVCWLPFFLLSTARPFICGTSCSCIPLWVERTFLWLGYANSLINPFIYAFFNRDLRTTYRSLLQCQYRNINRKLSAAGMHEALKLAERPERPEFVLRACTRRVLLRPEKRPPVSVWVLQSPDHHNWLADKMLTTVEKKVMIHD

With `COCCN(C(C)CCN1CCC(C)CC1)S(=O)(=O)c1ccc2ccccc2c1` (centres unmarked) [E3], the “5HT-7 receptor binding data using [3]H-5-CT” value (from here on “5HT-7 receptor binding data”) on 5-HT7 receptor was “E3 * (1 micromolar)”.

As to `CC(=O)c1ccc(N(C(C)CCN2CCC(C)CC2)S(=O)(=O)Cc2ccccc2)cc1` (centres unmarked) [G22], the “5HT-7 receptor binding data” value at 5-HT7 receptor is recorded as “G22 * (1 micromolar)”.

As for `COc1cccc(N(C(C)CCN2CCC(C)CC2)S(=O)(=O)c2cccc([N+](=O)[O-])c2)c1` (centres unmarked) [I23], the “5HT-7 receptor binding data” value at 5-HT7 receptor is listed as “I23 ** (100 nM)”.

On to `COc1cccc(N(C(C)CCN2CCC(C)CC2)S(=O)(=O)c2cccc(C)c2)c1` (centres unmarked) [B23], for which the “5HT-7 receptor binding data” value at 5-HT7 receptor is “B23 *** (10 nM)”.

`CC1CCN(CCC(C)N(c2cccc3ccccc23)S(=O)(=O)Cc2ccccc2)CC1` (centres unmarked) [G24]: at 5-HT7 receptor, the “5HT-7 receptor binding data” value is “G24 * (1 micromolar)”.

For the molecule `CC1CCN(CCC(C)N(C)S(=O)(=O)c2cccc([N+](=O)[O-])c2)CC1` (centres unmarked) [I8], at 5-HT7 receptor, the “5HT-7 receptor binding data” value is on record as “I8 ** (100 nM)”.

Take `CC1CCN(CCC(C)N(c2ccccn2)S(=O)(=O)c2cccc3ccccc23)CC1` (centres unmarked) [D13]: the “5HT-7 receptor binding data” value on 5-HT7 receptor is given as “D13 ** (100 nM)”.

Turning to `CC1CCN(CCC(C)N(c2ccccc2)S(=O)(=O)c2cccc([N+](=O)[O-])c2)CC1` (centres unmarked) [I21], on 5-HT7 receptor, the “5HT-7 receptor binding data” value is “I21 ** (100 nM)”.

As for `COc1ccc(S(=O)(=O)N(c2ccc(Cl)cc2)C(C)CCN2CCC(C)CC2)cc1` (centres unmarked) [C6], the “5HT-7 receptor binding data” value on 5-HT7 receptor is recorded as “C6 ** (100 nM)”.

Take `COCCN(C(C)CCN1CCC(C)CC1)S(=O)(=O)c1cccc(C(F)(F)F)c1` (centres unmarked) [N3]: the “5HT-7 receptor binding data” value at 5-HT7 receptor is “N3 ** (100 nM)”.

Regarding `CC1CCN(CCC(C)N(Cc2ccccc2)S(=O)(=O)c2cccc3ccccc23)CC1` (centres unmarked) [D1], at 5-HT7 receptor, the “5HT-7 receptor binding data” value is listed as “D1 * (1 micromolar)”.

As to `CC1CCN(CCC(C)N(Cc2ccccc2)S(=O)(=O)c2ccc3ccccc3c2)CC1` (centres unmarked) [E1], the “5HT-7 receptor binding data” value at 5-HT7 receptor was “E1 * (1 micromolar)”.

On to `Cc1ccc(N(C(C)CCN2CCC(C)CC2)S(=O)(=O)c2ccc(-c3ccccc3)cc2)cc1` (centres unmarked) [J20], for which the figures for the “Tail suspension” value in the assay on mice [1] (1 mg/kg) and in the assay on mice [1] (5 mg/kg) were 130 ± 11 s and 92 ± 9 s, respectively. The “Forced swim test” value in the assay with mice [2] (1 mg/kg) is 42 ± 6 s; in the assay on mice [2] (5 mg/kg), 28 ± 4 s. The molecule also returned a concentration for half-maximal inhibition (IC50) at 5-HT7 receptor of 61 nM. Also, the “5HT-7 receptor binding data” value at 5-HT7 receptor is listed as “J20 *** (10 nM)”.

Regarding `COc1ccccc1N(C(C)CCN1CCC(C)CC1)S(=O)(=O)c1cccc(C(F)(F)F)c1` (centres unmarked) [N16], the “5HT-7 receptor binding data” value at 5-HT7 receptor is recorded as “N16 ** (100 nM)”.

For `COc1ccc(S(=O)(=O)N(c2cccc3ccccc23)C(C)CCN2CCC(C)CC2)cc1` (centres unmarked) [C24], the “5HT-7 receptor binding data” value on 5-HT7 receptor is given as “C24 * (1 micromolar)”.

Consider `COc1cccc(N(C(C)CCN2CCC(C)CC2)S(=O)(=O)c2ccc(-c3ccccc3)cc2)c1` (centres unmarked) [J23], for which, at 5-HT7 receptor, the IC50 came to 39 nM and the “5HT-7 receptor binding data” value is “J23 *** (10 nM)”.

With `Cc1cccc(S(=O)(=O)N(CCN(C)C)C(C)CCN2CCC(C)CC2)c1` (centres unmarked) [B9], the “5HT-7 receptor binding data” value on 5-HT7 receptor was “B9 * (1 micromolar)”.

For the molecule `COc1cccc(N(C(C)CCN2CCC(C)CC2)S(=O)(=O)c2cccc3ccccc23)c1` (centres unmarked) [D23], at 5-HT7 receptor, the IC50 was 34 nM and the “5HT-7 receptor binding data” value is on record as “D23 *** (10 nM)”.

Regarding `CC1CCN(CCC(C)N(CCN(C)C)S(=O)(=O)c2ccc(Br)cc2)CC1` (centres unmarked) [M9], on 5-HT7 receptor, the “5HT-7 receptor binding data” value is “M9 * (1 micromolar)”.

As for `COc1ccc(S(=O)(=O)N(c2cccc3ccccc23)C(C)CCN2CCC(C)CC2)cc1OC` (centres unmarked) [O24], the “Tail suspension” value was 81 ± 8 s with mice [1] (1 mg/kg) and 74 ± 9 s with mice [1] (5 mg/kg). In addition, the entries for the “Forced swim test” value in the assay with mice [2] (1 mg/kg) and with mice [2] (5 mg/kg) were 69 ± 7 s and 51 ± 11 s, respectively. The IC50 on 5-HT7 receptor stood at 83 nM. Also, at 5-HT7 receptor, the “5HT-7 receptor binding data” value is “O24 *** (10 nM)”.

Consider `COc1cccc(N(C(C)CCN2CCC(C)CC2)S(=O)(=O)Cc2ccccc2)c1` (centres unmarked) [G23], for which, at 5-HT7 receptor, the “5HT-7 receptor binding data” value was “G23 *** (10 nM)”.

In the case of `CCCCCCCCCCCCN(C(C)CCN1CCC(C)CC1)S(=O)(=O)Cc1ccccc1` (centres unmarked) [G10], the “5HT-7 receptor binding data” value on 5-HT7 receptor is given as “G10 * (1 micromolar)”.

Consider `CC1CCN(CCC(C)N(c2cccc3ccccc23)S(=O)(=O)c2cccc([N+](=O)[O-])c2)CC1` (centres unmarked) [I24], for which the “5HT-7 receptor binding data” value on 5-HT7 receptor is “I24 *** (10 nM)”.

Consider `CC1CCN(CCC(C)N(Cc2ccccc2)S(=O)(=O)c2cccc([N+](=O)[O-])c2)CC1` (centres unmarked) [I1], for which the “5HT-7 receptor binding data” value at 5-HT7 receptor is recorded as “I1 ** (100 nM)”.

On to `COc1ccccc1N(C(C)CCN1CCC(C)CC1)S(=O)(=O)c1cccc(C)c1` (centres unmarked) [B16], for which the “5HT-7 receptor binding data” value on 5-HT7 receptor is reported as “B16 ** (100 nM)”.

With `Cc1ccc(N(C(C)CCN2CCC(C)CC2)S(=O)(=O)c2cccc(C(F)(F)F)c2)cc1` (centres unmarked) [N20], the “5HT-7 receptor binding data” value on 5-HT7 receptor is on record as “N20 ** (100 nM)”.

Usually IC50 stands for the concentration at which inhibition is half-maximal. A lower IC50 goes with higher potency.
